Assays:
[1] = tested on: M1-activated FLS; test: Cytokine expression in FLSs activated with M1 macrophage conditioned medium; format: cell-based, human
Experimental: (§1) To measure cytokine expression, RT-PCR (CFX 384, Bio-Rad, Hercules, CA, USA) was performed according to the manufacturer's protocol. […] Then, total RNA was isolated from cells (5×10^5 cells/well in a total of 6-well plates) using TRIzol (15596018, Thermo Fisher Scientific) and first strand complementary DNA (cDNA) using RT premix (Promega) was synthesized. Reverse transcription conditions were carried out at 45° C. for 60 minutes and at 95° C. for 5 minutes. Briefly, in each final reaction tube, 2 μL of cDNA (1 μg), 1 μL of sense and antisense primer solutions (0.4 μM), 12.5 μL of SYBR Premix Ex Taq (Takara Bio Inc.) and 9.5 μL of dH2O. The cycle threshold (Ct) value was calculated using the CFX96 Real-Time PCR Detection System (Bio-Rad) software, and the comparative Ct method (2ΔΔCt model) was used to calculate the relative fold change of gene expression. It was then normalized to mean GAPDH expression.
Recently, the role of macrophages in inflamed synovial membranes has been of great interest due to the inflammatory effects of these cells during pathogens of RA and OA in joints (A. Kennedy et al., Front. Immunol., 2:52, 2011). The present inventors therefore investigated the stimulation of FLS pro-inflammatory activity by activated M1 macrophage cytokines (from LPS-treated J774 cells to conditioned medium).

[2] = Hydrodynamic size distribution, potential and polydispersity index (Zetasizer Nano); format: physicochemical
[3] = tested on: macrophages treated with TNF-α-activated FLSs medium; test: Macrophage repolarization after TNF-α-activated FLSs medium; format: cell-based
Experimental: as §1
Macrophages of the synovium can stimulate pro-inflammatory FLSs activity by infiltrating inflamed tissues and increasing pro-inflammatory cytokine levels (M. Asif Amin et al., Semin. Immunopathol., 39 (4): 385-393, 2017). For this reason, modulating macrophage differentiation (ie, repolarization) is important in alleviating arthritis disease (J. Kim et al., ACS Nano, 13 (3): 3206-3217, 2019).

[4] = H2O2 decomposition and O2 production analysis; settings: after 24 hours, pH 7.4
Experimental: Then, 50 μl of the solution was added to a solution of 100 μL of Ti (SO4)2 containing 1.33 mL of 24% Ti(SO4)2 and 8.33 mL of H2SO4 in 50 mL of deionized water after 24 hours. After the reaction was completed, the absorbance of the solution was measured at 405 nm to evaluate the H2O2 concentration.
We performed H2O2-scavenging effect of AuNPs and intracellular ROS analysis before pro-inflammatory cytokine secretion assay. Specifically, after treatment with Triamcinolone and AuNPs under physiological conditions (pH 7.4), concentration of H2O2 was analyzed.

[5] = tested on: CIA-induced mice; test: Collagen-induced arthritis (CIA) model; format: in vivo, DBA/1 mice; settings: for paw edema and paw score: ankle joint, 48 days
Experimental: DBA/1 mice (male, 4-6 weeks old, body weight 20-25 g) were purchased from Orient Bio (Seoul, Korea) and the mice were subjected to a 12-hour light/dark cycle (lit at 6:30 AM) for 7-14 days. They were placed in a specific pathogen-free environment with temperature and humidity controlled and acclimatized before the experiment. All animal experiments were performed according to the Gachon University Laboratory Animal Care and Use Guide. […] Animals with […] arthritis were randomly assigned to 6 groups (n=6) after the first signs of inflammation were observed on day 27.
The status of RA was assessed visually by grading paw swelling according to the following criteria: 0, no swelling; 1, inflammation and swelling in one toe; 2, more than one toe, but inflammation and swelling throughout the foot; 3, moderate swelling of the entire foot; 4, Severe erythema and swelling of the entire foot and ankle (H. E. Scales, et al., Rheumatology (Oxford) 55 (3): 564-572, 2016). A total score of four paws was recorded for each mouse as the arthritis index. […] Each treatment group was administered twice weekly for 3 weeks, 2 mg/kg or 5 mg/kg condition, and the arthritis index of each group was recorded over time. After 3 weeks of treatment, mice were sacrificed, and limbs were collected and histological analysis was performed.
Histopathology was evaluated to determine the characteristics of RA including macrophage phenotype, synovitis and cartilage destruction. Specifically, on day 48, the mice were sacrificed and the ankle joint was recovered. The […] was fixed in 4% paraformaldehyde at 4° C. for 3 days, transferred to a descaling solution (Sigma), and left on an orbital shaker. Then, the tissue was decalcified at room temperature for 14 days, and the non-calcified ankle joint was embedded in paraffin and then cut into 3 μm using a microtome. For immunofluorescence histochemistry, tissue sections were dewaxed and TNF-α (Abcam, ab1793), IL-1β (Abcam, ab9722), IL-6 (Abcam, ab7737), INF-γ (Novus Biotech, NBP1), CD86 (Invitrogen, 13-0862-82), and Dectin-1 (Abcam, ab140039) were stained with primary antibodies. The secondary antibodies used in the present invention are goat anti-rat Alexa Fluor 488 (Abcam) for INF-γ, goat anti-mouse Alexa Fluor 488 (Abcam) for TNF-α, goat anti-mouse Alexa Fluor 568 for CD86 (Abcam), goat anti-rabbit Alexa Fluor 488 (Abcam) for IL-1β and IL-6 and goat anti-rabbit Alexa Fluor 568 (Abcam) for Dectin-1. The tissue sections were then stained with DAPI mounting solution and observed using a confocal fluorescence microscope (LSM700, Carl Zeiss) and EVOS M7000, Invitrogen. Fluorescence intensity was also quantified using ImageJ, Zen Lite (Zeiss) and Celleste (Invitrogen).

With `C[C@]12C=CC(=O)C=C1CC[C@H]1[C@@H]3C[C@@H](O)[C@](O)(C(=O)CO)[C@@]3(C)C[C@H](O)[C@@]12F` [Triam, Triamcinolone] the “level of FLSs pro-inflammatory cytokines (TNF-α, IL-1β and IL-6)” value ([1]; FLSs treated with M1 medium) was “effectively reduced”, the “anti-inflammatory mRNA (IL-4, IL-10 and Arg-1) synthesis” value ([1]; M1-activated FLS) was “did not induce anti-inflammatory cytokine release” and the “electric potential caused by the surface charge” value ([2]; Example 1, Triam series) was “approached neutral charges”. The hydrodynamic size ([2]; Example 1, Triam series) was 75 nm, the “M2 response (IL-4, Arg-1 and IL-10 expression)” value [3] was “did not induce noticeable M2 marker expression” and the “inflammatory marker levels (TNF-α, IL-1β and IL-6 expression)” value [3] was “decreased significantly”. The “reduction of H2O2 concentration” value [4] was “about 48%”, the “level of CD86 (M1 marker) in ankle joint” value ([5]; 2 mg/kg) was “reduced the level of the M1 marker” and the “level of Dectin-1 (M2 marker) in ankle joint” value ([5]; 2 mg/kg) was “did not sufficiently restore the level of the M2 marker”. The “paw edema and paw score” value ([5]; 2 mg/kg) was “did not show sufficient effect”, the “level of CD86 (M1 marker) in ankle joint” value ([5]; 5 mg/kg) was “reduced the level of the M1 marker” and the “level of Dectin-1 (M2 marker) in ankle joint” value ([5]; 5 mg/kg) was “did not sufficiently restore the level of the M2 marker”. For the same molecule, the “paw edema and paw score” value ([5]; 5 mg/kg) was “did not show sufficient effect”.

For `C[C@@H]1C[C@H]2[C@@H]3CCC4=CC(=O)C=C[C@]4(C)[C@@]3(F)[C@@H](O)C[C@]2(C)[C@@]1(O)C(=O)CO` [free Dex, dexamethasone], the “electric potential caused by the surface charge” value ([2]; Example 9, Dex series) was “neutrally charged” and the hydrodynamic size ([2]; Example 9, Dex series) was 125 nm.

Source: patent publication US20250000876A1, “Novel therapeutic agent for inflammatory disease” (Gachon University of Industry-Academic cooperation …, priority 2020, published 2025)
